Each structure is given as a SMILES string.

Data on 1 molecule can be found in patent US20190192455A1, “USE OF CELIPROLOL FOR TREATING KYPHOSCOLIOTIC EHLERS-DANLOS SYNDROME” (Assistance Publique-Hospitaux de Paris (AP-HP), priority 2017, published 2019).

For test [1], the system named is kyphoscoliotic EDS patient. In words: Case report: celiprolol in prevention of further arterial events in a kyphoscoliotic EDS patient. Type of test: in vivo, human. An excerpt:
All ruptures occurred following minor trauma. The right eye ruptured twice, the left eye once only. […] Their family history was remarkable by the death of their only and younger sibling, by spontaneous abdominal aortic rupture. Their phenotype was similar to their […] sibling's.
Physical examination evidenced major cutaneous fragility (bruising) and dystrophic scars. […] furthermore presented a severe kyphoscoliosis and diffuse joint hypermobility (Beighton score 8/9) with instability, particularly of the left shoulder (recurrent dislocations). Further osteoarticular signs were pes planus and minor pectus excavatum. […] The dissecting aneurysm of the celiac trunk also remained stable and a complete regression of the extension of the dissection to the SMA was noted. Two years later, the patient presented with similar pain in the left calf. Doppler ultrasound documented a left tibial anterior dissecting aneurysm. This second clinical event also resolved medically. Celiprolol was initiated and up-titrated to the optimally tolerated dose (400 mg/day) in prevention of further arterial events.

Another test has as its system vascular EDS patients. The following applies: vascular EDS patients taking celiprolol, compared to placebo (Ong et al., 2010); cited from earlier work.

In the case of `CCN(CC)C(=O)Nc1ccc(OCC(O)CNC(C)(C)C)c(C(C)=O)c1` (stereo not shown) [Celiprolol, N′-(3-Acetyl-4-(3-((1,1-dimethylethyl)amino)-2-hydroxypropoxy)phenyl)-N, N-diethylurea], the “clinical course (arterial events) under celiprolol” value in test [1] (one patient with recurrent arterial dissections, up-titrated to 400 mg/day, 3 years follow-up) was “remained clinically silent”. In addition, the “systematic arterial monitoring for silent arterial defects” value in test [1] (same patient, 400 mg/day, 3 years follow-up) is on record as “did not evidence further silent arterial defects”. The “novel arterial manifestation under celiprolol treatment” value in test [1] (same patient, four year follow-up) was “without novel arterial manifestation”. Besides, the “incidence of arterial rupture or dissection” value with vascular EDS patients is on record as “decreased incidence of arterial rupture or dissection”.
